Entries after “also recorded” stand apart in the source; their conditions may differ.
Tests used:
HDAC I/II [1] = test: HDAC-Glo I/II assay in HCT116 cells; assay type: cell-based, human; settings: for HDAC-Glo: Efficacy, HCT116 / Efficacy, HDAC-Glo I/II HCT116 assay: maximal response; for HDAC I/II inhibitory activity (in words): HCT116 and HEK293 cells, validation with epigenetics libraries; for HDAC activity inhibited, HDAC-Glo I/II: HCT116, qHTS primary screening of NPC library
HDAC I/II [2] = test: HDAC-Glo I/II assay in human neural stem cells; assay type: cell-based; settings: cherry-pick confirmation; for HDAC-Glo: Efficacy, hNSC: maximal response; for IC50: read-out: HDAC-Glo: IC50, hNSC, 11 concentrations, 1 hour; for inhibition of HDAC-Glo I/II luminescence signals: hNSCs, Figure 2
human neural stem cells = test: CellTiter-Glo cell viability assay in hNSC; assay type: cell-based; settings: cherry-pick confirmation, 1 hour
HCT116 cells = test: CellTiter-Glo cell viability assay in HCT116; assay type: cell-based, human; settings: cherry-pick confirmation, 1 hour
HDAC3 = HDAC3 (Homo sapiens, UniProt O15379); test: Fluorogenic isoform-specific HDAC assay, HDAC3; assay type: biochemical; settings: 20 μM
[3] = test system: class I and II HDAC enzymes; test: Panel of fluorogenic assays against ten class I and II HDAC isoforms; assay type: biochemical, human; settings: 20 μM, Figure 3
[4] = read-out: HDAC-Glo: IC50, HCT116, cherry-pick confirmation, 11 concentrations, 1 hour
[5] = read-out: IC50, HDAC-Glo I/II HCT116 assay, powder confirmation

Chain of HDAC3 (O15379 whole entry, canonical isoform): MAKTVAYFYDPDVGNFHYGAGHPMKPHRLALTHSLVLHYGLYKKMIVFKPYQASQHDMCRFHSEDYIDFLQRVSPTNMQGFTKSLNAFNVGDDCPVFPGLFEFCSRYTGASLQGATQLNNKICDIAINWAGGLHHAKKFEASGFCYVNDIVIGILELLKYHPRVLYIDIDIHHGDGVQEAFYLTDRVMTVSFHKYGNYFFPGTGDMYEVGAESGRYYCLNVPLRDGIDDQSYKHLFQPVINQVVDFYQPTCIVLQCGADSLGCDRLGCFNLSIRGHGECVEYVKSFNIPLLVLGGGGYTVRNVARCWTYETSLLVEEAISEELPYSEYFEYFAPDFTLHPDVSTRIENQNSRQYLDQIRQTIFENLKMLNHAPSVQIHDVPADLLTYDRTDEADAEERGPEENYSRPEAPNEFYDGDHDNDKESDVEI
Chain of HDAC3 (Q9Y618 395-489 partner limits assumed): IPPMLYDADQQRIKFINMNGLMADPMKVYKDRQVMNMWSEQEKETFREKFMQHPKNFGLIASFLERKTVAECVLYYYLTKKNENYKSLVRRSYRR

| Compound | HDAC-Glo: Efficacy, HCT116 (HDAC I/II [1]; cherry-pick confirmation) | IC50 (HDAC I/II [1]; [4]) [nM] | HDAC-Glo: Efficacy, hNSC (HDAC I/II [2]) [%] | IC50 (HDAC I/II [2]) [nM] | Viability: IC50, hNSC (human neural stem cells) | Viability: IC50, HCT116 (HCT116 cells) | Efficacy, HDAC-Glo I/II HCT116 assay (HDAC I/II [1]; powder confirmation) | IC50 (HDAC I/II [1]; [5]) [nM] | further results |
| --- | --- | --- | --- | --- | --- | --- | --- | --- | --- |
| CC(C)[C@H](C(=O)Nc1ccc(C(=O)NO)cc1)c1ccccc1 [AR-42] | 113 ± 2% | 940 ± 110 | 115 ± 5 | 760 ± 170 | Inactive | Inactive | – | – | – |
| CC(C)c1ccc2oc3nc(N)c(C(=O)O)cc3c(=O)c2c1 [Amlexanox] | 110 ± 2% | 1090 ± 70 | 96 ± 7 | 1100 ± 140 | Inactive | Inactive | 98 ± 0% | 1650 ± 360 | – |
| CN(C)C(=O)COC(=O)Cc1ccc(OC(=O)c2ccc(NC(=N)N)cc2)cc1 [Camostat] | 109 ± 4% | 1940 ± 660 | 102 ± 3 | 950 ± 200 | Inactive | Inactive | – | – | inhibition of HDAC-Glo I/II luminescence signals (HDAC I/II [2]): completely inhibited |
| O=C(Oc1ccccc1)c1cccc(C(=O)Oc2ccccc2)c1 [Diphenyl isophthalate] | 112 ± 5% | 3870 ± 810 | 103 ± 3 | 2240 ± 150 | Inactive | Inactive | 97 ± 0% | 5280 ± 630 | inhibition of HDAC3 (in words) (HDAC3): selectively inhibited |
| Cc1nc(-c2ccc(OCC(C)C)c(C#N)c2)sc1C(=O)O [Febuxostat] | 127 ± 5% | 2380 ± 440 | 116 ± 3 | 2160 ± 600 | Inactive | Inactive | 96 ± 1% | 2430 ± 270 | inhibition of HDAC3 (in words) (HDAC3): selectively inhibited; also recorded: selective to HDAC3 |
| C[C@@H]1NC(=O)[C@H]2CCCN2C(=O)[C@H](CCCCCC(=O)[C@@H]2CO2)NC(=O)[C@@H](C)NC1=O [HC Toxin] | – | – | – | – | – | – | – | – | HDAC I/II inhibitory activity (in words) (HDAC I/II [1]): identified |
| CC(C)(C)OC(=O)Nc1ccc(-c2cc(C(=O)NCCCCCCC(=O)NO)no2)cc1 [ISOX] | 124 ± 5% | 2320 ± 650 | 118 ± 6 | 1960 ± 350 | Inactive | Inactive | – | – | – |
| O=C(/C=C/c1ccc(O)cc1)c1ccc(O)cc1O [Isoliquiritigenin] | 110 ± 3% | 1670 ± 190 | 117 ± 5 | 2020 ± 130 | Inactive | Inactive | 97 ± 0% | 2360 ± 110 | inhibition of HDAC isoforms (in words) [3]: weakly inhibited many class I and II HDAC enzymes |
| Cc1oncc1C(=O)Nc1ccc(C(F)(F)F)cc1 [Leflunomide] | 118 ± 11% | 9480 ± 1980 | 106 ± 2 | 5900 | Inactive | Inactive | 92 ± 0% | 5610 ± 120 | inhibition of HDAC3 (in words) (HDAC3): selectively inhibited |
| O=C(Nc1ccc([N+](=O)[O-])cc1Cl)c1cc(Cl)ccc1O [Niclosamide] | 112 ± 2% | 2380 ± 160 | 102 ± 4 | 1400 ± 240 | Inactive | Inactive | 98 ± 1% | 2080 ± 170 | – |
| CCCCc1nc2cc(/C=C/C(=O)NO)ccc2n1CCN(CC)CC [Pracinostat] | 114 ± 4% | 350 ± 60 | 112 ± 5 | 270 ± 60 | Inactive | Inactive | – | – | – |
| Nc1cc(F)ccc1NC(=O)/C=C/c1cnn(C/C=C/c2ccccc2)c1 [RGFP966] | – | – | – | – | – | – | – | – | HDAC I/II inhibitory activity (in words) (HDAC I/II [1]): identified |
| Oc1ccc(/C=C/c2cc(O)cc(O)c2)cc1 [Resveratrol] | 97 ± 13% | 11000 ± 1980 | 102 ± 4 | 7430 | Inactive | Inactive | 69 ± 2% | 18200 ± 2050 | HDAC I/II inhibitory activity (in words) (HDAC I/II [1]): identified; inhibition of HDAC-Glo I/II luminescence signals (HDAC I/II [2]): completely inhibited |
| O=C(CCCCCCC(=O)Nc1ccccc1)NO [Vorinostat, suberoylanilide hydroxamic acid] | 0.77 ± 0.05 (119 ± 6) % | – | 101 ± 2 | 660 ± 80 | Inactive | Inactive | 0.45 ± 0.04 (99 ± 0) % | – | – |
| CCC[S+]([O-])c1ccc2[nH]c(NC(=O)OC)nc2c1 (stereo not drawn) [albendazole oxide] | – | – | – | – | – | – | – | – | HDAC activity inhibited, HDAC-Glo I/II (HDAC I/II [1]): more than half |
| CCCSc1ccc2nc(NC(=O)OC)[nH]c2c1 [albendazole] | – | – | – | – | – | – | – | – | HDAC activity inhibited, HDAC-Glo I/II (HDAC I/II [1]): more than half |
| CCC(=O)CCCCC[C@@H]1NC(=O)[C@H]2CCCCN2C(=O)[C@H]([C@@H](C)CC)NC(=O)[C@H](Cc2cn(OC)c3ccccc23)NC1=O [apicidin] | – | – | – | – | – | – | – | – | HDAC I/II inhibitory activity (in words) (HDAC I/II [1]): identified |
| Nc1cc(F)ccc1NC(=O)c1ccc(CNC(=O)/C=C/c2cccnc2)cc1 [chidamide] | – | – | – | – | – | – | – | – | HDAC I/II inhibitory activity (in words) (HDAC I/II [1]): identified |
| Nc1ccccc1NC(=O)c1ccc(CNC(=O)OCc2cccnc2)cc1 [entinostat] | – | – | – | – | – | – | – | – | HDAC I/II inhibitory activity (in words) (HDAC I/II [1]): identified |
| c1ccc2[nH]c(-c3cscn3)nc2c1 [thiabendazole] | – | – | – | – | – | – | – | – | HDAC activity inhibited, HDAC-Glo I/II (HDAC I/II [1]): more than half |
| selisistat [selisistat (EX-527)] | – | – | – | – | – | – | – | – | average IC50, HDAC-Glo I/II, assay selectivity (HDAC I/II [1]; HCT116, Figure 1C): inactive |
